Where no end group is shown, it is not given here. [ ]: non-standard residue; d: D form.
Columns and labels:
[1] = tested on: IGF-I receptors in membranes of non-SCLC H157 tumours; assay: IGF-I receptor binding on H157 tumour membranes after in vivo treatment; design: species or system human
Excerpt: (§1) Br. J. Cancer (1994). 70, 886 892 ? Macmillan Press Ltd.. […] Bombesin GRP antagonists. […] Lung carcinoma is the leading cause of cancer-related deaths in the western world. It is estimated that in 1992 there were approximately 168,000 new cases of lung cancer in the US and that about 146,000 deaths occurred from this disease (Boring et al., 1992). […] The growth factors such as bombesin/gastrin-releasing pep- tide (GRP), epidermal growth factor, (EGF), transforming growth factor a (TGF-x) and insulin-like growth factor I(IGF-I) appear to play a role in the proliferation and pro- gression of lung cancer (Cuttitta et al., 1985; Veale et al., 1987; Minuto et al., 1988; Siegfried & Owens, 1988; Macaulay et al., 1990; Tateishi et al., 1991; Damstrup et al., 1992; Sethi & Rozengurt, 1992; Rabiasz et al., 1992; Moody & Cuttitta, 1993). […] Tpi is 2,3,4,9-tetrahydro- Correspondence: A.V. Schally (151). VA Medical Center, 1601 Per- dido Street. New Orleans, LA 70146. USA. Received 1 March 1994; and in revised form 5 July 1994. Br. J. Cancer (1994), 70, 886-892 C Macmillan Press Ltd., 1994 PEPTIDE ANALOGUES IN LUNG CANCER 8U7 lH-pyrido [3,4bjindol-3-carboxylic acid, a conformationally constrained secondary amine derivate of tryptophan and Tac is thiazolidine-4-carboxylic acid. […] Animals Male athymic NCr nulmu nude mice, approximately 6 weeks old on arrival, were obtained from the NCI (Bethesda, MD, USA) and maintained under pathogen-limited conditions. Cell lines The human SCLC cell line NCI-H69, was obtained from the American Type Cell Culture (ATCC), Rockville, MD, USA and the non-SCLC cell line NCI-H157, from Dr H. Oie, NCI-Navy Medical Oncology Branch, Bethesda, MD, USA. These cell lines were cultured in RPMI-1640 medium supple- mented with 4 mM L-glutamine, 50 units ml-I penicilln G sodium, SOigml-' streptomycin sulphate, 0.125pgml-' amphotericin B and 10% fetal bovine serum at 3TC in a humidified 95% air/5% carbon dioxide atmosphere. CeLs were passaged weekly and routinely monitored for myco- plasma contamination using a detection kit (Boehringer- Mannheim, Mannheim, Germany). All culture media com- ponents were purchased from Gibco (Grand Island, NY, USA). […] The number of mitotic and apoptotic cells per 1,000 cells was determined, and the percentage area of necrosis in tumour sections was examined using the point-counting method (Szepeshazi et al., 1991, 1992), in which the crossing points of an ocular net that coincide with necrosis in various sections are counted. Radiommunoassays Serum levels of growth hormone were determined by double- antibody radioimmunoassay (RIA) using materials supplied by the National Hormone and Pituitary Program of the National Institute of Diabetes and Digestive and Kidney Diseases (NIDDK).

[2] = tested on: Bombesin/GRP receptors in membranes of SCLC H69 tumours; assay: Bombesin/GRP receptor binding on H69 tumour membranes after in vivo treatment; design: species or system human; settings: Table IV, Experiment I (SCLC-H69); tumour membranes after in vivo treatment; control 420; done once
Excerpt: as §1, with “USA). Receptor assays Preparation of membranes for receptor studies was described previously (Halmos et al., 1993). Iodinated EGF and IGF-I were purchased from Amersham (Arlington Heights, IL, USA). Radioiodination of other peptides and receptor bind- ing of EGF, IGF-I, somatostatin and bombesin/GRP were performed as previously described (Srkalovic et al., 1989; Szepeshazi et al., 1992). Complete displacement assays on tumour membranes were done only once because of the shortage of tumour material. The LIGAND PC computerised curve-fitting programme of Munson and Rodbard (1980) was used to determine the types of receptor binding, dissociation constant (Kd) values, and the maximal binding capacity (BDj) of receptors.” for “USA).”

[3] = tested on: Somatostatin receptors in membranes of SCLC H69 tumours; assay: Somatostatin receptor binding on H69 tumour membranes after in vivo treatment; design: species or system human
Excerpt: as §1, with “USA). Receptor assays Preparation of membranes for receptor studies was described previously (Halmos et al., 1993). Iodinated EGF and IGF-I were purchased from Amersham (Arlington Heights, IL, USA). Radioiodination of other peptides and receptor bind- ing of EGF, IGF-I, somatostatin and bombesin/GRP were performed as previously described (Srkalovic et al., 1989; Szepeshazi et al., 1992). Complete displacement assays on tumour membranes were done only once because of the shortage of tumour material. The LIGAND PC computerised curve-fitting programme of Munson and Rodbard (1980) was used to determine the types of receptor binding, dissociation constant (Kd) values, and the maximal binding capacity (BDj) of receptors.” for “USA).”

[4] = tested on: human SCLC cell line NCI-H69; assay: Growth of H69 SCLC xenografts in nude mice; assay type: in vivo, human (xenograft in male athymic nude mice)
Excerpt: (§2) Br. J. Cancer (1994). 70, 886 892 ? Macmillan Press Ltd.. […] Bombesin GRP antagonists. […] Lung carcinoma is the leading cause of cancer-related deaths in the western world. It is estimated that in 1992 there were approximately 168,000 new cases of lung cancer in the US and that about 146,000 deaths occurred from this disease (Boring et al., 1992). […] The growth factors such as bombesin/gastrin-releasing pep- tide (GRP), epidermal growth factor, (EGF), transforming growth factor a (TGF-x) and insulin-like growth factor I(IGF-I) appear to play a role in the proliferation and pro- gression of lung cancer (Cuttitta et al., 1985; Veale et al., 1987; Minuto et al., 1988; Siegfried & Owens, 1988; Macaulay et al., 1990; Tateishi et al., 1991; Damstrup et al., 1992; Sethi & Rozengurt, 1992; Rabiasz et al., 1992; Moody & Cuttitta, 1993). […] Tpi is 2,3,4,9-tetrahydro- Correspondence: A.V. Schally (151). VA Medical Center, 1601 Per- dido Street. New Orleans, LA 70146. USA. Received 1 March 1994; and in revised form 5 July 1994. Br. J. Cancer (1994), 70, 886-892 C Macmillan Press Ltd., 1994 PEPTIDE ANALOGUES IN LUNG CANCER 8U7 lH-pyrido [3,4bjindol-3-carboxylic acid, a conformationally constrained secondary amine derivate of tryptophan and Tac is thiazolidine-4-carboxylic acid. […] Animals Male athymic NCr nulmu nude mice, approximately 6 weeks old on arrival, were obtained from the NCI (Bethesda, MD, USA) and maintained under pathogen-limited conditions. Cell lines The human SCLC cell line NCI-H69, was obtained from the American Type Cell Culture (ATCC), Rockville, MD, USA and the non-SCLC cell line NCI-H157, from Dr H. Oie, NCI-Navy Medical Oncology Branch, Bethesda, MD, USA. These cell lines were cultured in RPMI-1640 medium supple- mented with 4 mM L-glutamine, 50 units ml-I penicilln G sodium, SOigml-' streptomycin sulphate, 0.125pgml-' amphotericin B and 10% fetal bovine serum at 3TC in a humidified 95% air/5% carbon dioxide atmosphere. CeLs were passaged weekly and routinely monitored for myco- plasma contamination using a detection kit (Boehringer- Mannheim, Mannheim, Germany). All culture media com- ponents were purchased from Gibco (Grand Island, NY, USA). Receptor assays Preparation of membranes for receptor studies was described previously (Halmos et al., 1993). Iodinated EGF and IGF-I were purchased from Amersham (Arlington Heights, IL, USA). Radioiodination of other peptides and receptor bind- ing of EGF, IGF-I, somatostatin and bombesin/GRP were performed as previously described (Srkalovic et al., 1989; Szepeshazi et al., 1992). Complete displacement assays on tumour membranes were done only once because of the shortage of tumour material. The LIGAND PC computerised curve-fitting programme of Munson and Rodbard (1980) was used to determine the types of receptor binding, dissociation constant (Kd) values, and the maximal binding capacity (BDj) of receptors. In order to determine the specificity of the binding sites for radiolabelled EGF, IGF-I, somatostatin and bombesin to lung cancer membranes, various structuraly related and unrelated peptides were tested for their ability to inhibit the binding of the tracers. Histological procedure The histological procedures were the same as described previously (Szepeshazi et al., 1991, 1992). The number of mitotic and apoptotic cells per 1,000 cells was determined, and the percentage area of necrosis in tumour sections was examined using the point-counting method (Szepeshazi et al., 1991, 1992), in which the crossing points of an ocular net that coincide with necrosis in various sections are counted. Radiommunoassays Serum levels of growth hormone were determined by double- antibody radioimmunoassay (RIA) using materials supplied by the National Hormone and Pituitary Program of the National Institute of Diabetes and Digestive and Kidney Diseases (NIDDK).

SCLC H69 tumours = assay: Histology (mitosis, apoptosis, necrosis) of SCLC H69 tumours; assay type: in vivo, human (xenograft in nude mice); settings: Table II, Experiment I (SCLC H69); control 0.96 ? 0.1; means ? s.e.; *P < 0.05 vs control
Excerpt: as §2

[5] = tested on: MIA PaCa-2 human pancreatic cancer cell line; settings: ref Liebow et al., 1989; cited from earlier work
Excerpt: Br. J. Cancer (1994). 70, 886 892 ? Macmillan Press Ltd..

human SCLC cell line H69 = assay: [3H]Thymidine incorporation assay in H69 cells; assay type: cell-based; settings: for [3H]Thymidine incorporation: Table V, mean s.e.
Excerpt: as §2

[6] = Serum gastrin radioimmunoassay in nude mice; assay type: in vivo; settings: both experiments, after chronic treatment, vs controls
[7] = Serum growth hormone (GH) radioimmunoassay in nude mice; assay type: in vivo
Excerpt: Br. J. Cancer (1994). 70, 886 892 ? Macmillan Press Ltd.. […] Bombesin GRP antagonists. […] Lung carcinoma is the leading cause of cancer-related deaths in the western world. It is estimated that in 1992 there were approximately 168,000 new cases of lung cancer in the US and that about 146,000 deaths occurred from this disease (Boring et al., 1992). […] CeLs were passaged weekly and routinely monitored for myco- plasma contamination using a detection kit (Boehringer- Mannheim, Mannheim, Germany). […] The number of mitotic and apoptotic cells per 1,000 cells was determined, and the percentage area of necrosis in tumour sections was examined using the point-counting method (Szepeshazi et al., 1991, 1992), in which the crossing points of an ocular net that coincide with necrosis in various sections are counted. Radiommunoassays Serum levels of growth hormone were determined by double- antibody radioimmunoassay (RIA) using materials supplied by the National Hormone and Pituitary Program of the National Institute of Diabetes and Digestive and Kidney Diseases (NIDDK).

[8] = tested on: non-SCLC cell line NCI-H157; assay: Growth of H157 non-SCLC xenografts in nude mice; assay type: in vivo, human (xenograft in male athymic nude mice); settings: RC-160 100 µg/day, RC-3095 20 µg/day
Excerpt: as §2

[9] = H69 SCLC xenografts, as compared with control group, RC-160 100 µg, RC-3950-II 20 µg per animal per day s.c. peritumorally, 5 weeks

[dF]CY[dW]KVCW-NH2 (cysteine pairing not given here) [RC-160, Somatostatin analogue RC-160]
IGF-I maximal binding capacity (Bmax) ([1]; Table IV, Experiment II (non-SCLC H157), tumour membranes after in vivo treatment, control 257, done once): 129 fmol mg' protein | IGF-I binding sites on H157 tumours (in words) ([1]; after in vivo treatment): decreased | Bombesin/GRP maximal binding capacity (Bmax) [2]: 435 fmol mg-'protein | Somatostatin maximal binding capacity (Bmax) ([3]; Table IV, Experiment I (SCLC-H69), tumour membranes after in vivo treatment, control 450, done once): 570 fmol mg-'protein | Binding capacity of receptors for somatostatin on H69 tumours (in words) ([3]; after in vivo treatment): increased the binding capacity of receptors for somatostatin | Reduction in tumour volumes [4, 9]: more than 70% | Reduction in tumour weights [4, 9]: more than 70% | Time from which tumour growth was significantly inhibited ([4]; SCLC H69 tumours, P<0.01, from start of the experiment): 14 days | Tumour volume, final ([4]; Table I, Experiment I (SCLC-H69), 5 weeks s.c. peritumoral, RC-160 100 µg/day, RC-3440, RC-3095, RC-3950-II 20 µg/day per animal, control 249.7 ? 182.3, means ? s.d., ten animals per group, *P<0.05 vs control): 66.0 26.5* (mm)r | Tumour weight ([4]; Table I, Experiment I (SCLC-H69), 5 weeks s.c. peritumoral, RC-160 100 µg/day, antagonists 20 µg/day per animal, control 0.27 ? 0.19, means ? s.d., *P<0.05 vs control): 0.058 0.04* g | Tumour doubling time ([4]; Table I, Experiment I (SCLC-H69), 5 weeks, RC-160 100 µg/day, antagonists 20 µg/day per animal s.c., control 7.5): 12.7 days | Growth of H69 SCLC tumours (in words) ([4]; s.c. peritumorally, RC-160 100 µg, bombesin/GRP antagonists 20 µg per animal per day, 5 weeks): inhibited the growth of H69 SCLC xenografts | Ratio of apoptotic to mitotic indices (SCLC H69 tumours): 2.27 ± 0.5* | Effect on EGF-stimulated cell growth (in words) [5]: reversed the stimulatory effect of EGF | Effect on EGF-stimulated phosphorylation of the tyrosine kinase domain of the EGF receptors (in words) [5]: reversed the stimulatory effect of EGF | Suppression of DNA synthesis (human SCLC cell line H69; "At 0.0 ILg ml-'" RC-160, 5 days of incubation, H69 cells): about 43% | [3H]thymidine incorporation into DNA of H69 cells (in words) (human SCLC cell line H69; RC-160 0.001 to 10.0 µg/ml, 5 days, RC-3005 or RC-3009 5.0 and 25.0 µg/ml, 3 days): significantly inhibited | [3H]Thymidine incorporation (human SCLC cell line H69; 0.001 µg/ml, 5 days, *P<0.05 vs control): 81.6 4.6* per cent of control | [3H]Thymidine incorporation (human SCLC cell line H69; 0.01 µg/ml, 5 days, *P<0.05 vs control): 80.0 4.1* per cent of control | [3H]Thymidine incorporation (human SCLC cell line H69; 0.1 µg/ml, 5 days, **P<0.01 vs control): 71.6 ± 3.4** per cent of control | Serum gastrin levels (in words) [6]: significantly decreased serum growth hormone and gastrin levels | Serum GH levels (in words) ([7]; both experiments, after chronic treatment, vs controls): significantly decreased serum growth hormone and gastrin levels | Decrease in serum GH levels ([7]; mice treated with RC-160 as compared with control mice): about 48% | Growth of H157 non-SCLC tumours (in words) ([8]; 4 weeks s.c., SB-75 100 µg/day per animal, vs control): significantly reduced | Tumour volume, final ([8]; Table I, Experiment II (non-SCLC H157), 4 weeks s.c. peritumoral, SB-75 100 µg/day per animal, control 1580.3 ? 455.7, means ? s.d., ten animals per group, *P<0.05 vs control): 291.0 207.8* (mm)r | Tumour weight ([8]; Table I, Experiment II (non-SCLC H157), 4 weeks s.c., SB-75 100 µg/day, control 1.9 ? 0.3, means ? s.d., *P<0.05 vs control): 0.64 0.3* g | Tumour doubling time ([8]; Table I, Experiment II (non-SCLC H157), 4 weeks s.c., SB-75 100 µg/day, control 3.88): 6.06 days
